In the oligonucleotide strings, read from the 5' end, every base follows the letter of its sugar. An asterisk marks phosphorothioate; unmarked linkages are phosphodiester. Other units and linkages are bracketed, terminal groups are in braces. A string of capitals states the bases alone. d = 2'-deoxy (DNA)
Key:
human PBMC [1] = test: Induction of IFN-gamma from healthy human PBMC (ELISpot); format: cell-based; conditions: PBMC from 7 healthy individuals, 48 hours, FIG. 12
Procedure: (§1) Whole blood was obtained from healthy blood donors. PBMCs were prepared from 30 ml whole blood according to the following protocol:
(§2) 30 ml blood was transferred directly into heparinized tubes. All blood was transferred into one 50 ml Falcon tube and PBS added up to 50 ml. 15 ml Ficoll (17-1440-03, obtained from Amersham Bioscience AB, Uppsala) was then added into two falcon tubes (50 ml). The PBS-treated blood was then carefully added on the top of to Ficoll, 25 ml to each tube. The tubes were then centrifuged 25 min at 1700 RPM at RT (20° C.).
RPMIc medium was prepared under sterile conditions, using a 0.22 uM filter. (RPMIc denotes a RPMI 1640 culture medium (R0883, Sigma) supplemented with 5% heat-inactivated (56° C.,1 h) FCS 1.5 mM L-glutamine (G7513, Sigma), 100 U/ml penicillin and 100 ug/ml streptomycin, PEST (P0781, Sigma), hepes (H0887, Sigma), and gentamycin (G1272, Sigma)). […]
The cells were counted and left in PBS, then centrifuged at 1200 RPM, 10 min. Medium was then added to obtain the concentration of interest, and the cells counted (16 squares)×3. The mean value was calculated and multiplied with the dilution factor×10^4=cells/ml. […]
Elispot assays where performed according to the manufactures recommended guidelines (MabTech) and the plates were analyzed using an AID ELISpot reader system (Autoimmun Diagnostika GmbH, Strassberg, Germany). […]

human PBMC [2] = test: Induction of IFN-alpha from healthy human PBMC (ELISpot); format: cell-based; conditions: PBMC from 10 healthy individuals, 48 hours
Procedure: as §1, §2
RPMIc medium was prepared under sterile conditions, using a 0.22 uM filter. (RPMIc denotes a RPMI 1640 culture medium (R0883, Sigma) supplemented with 5% heat-inactivated (56° C.,1 h) FCS 1.5 mM L-glutamine (G7513, Sigma), 100 U/ml penicillin and 100 ug/ml streptomycin, PEST (P0781, Sigma), hepes (H0887, Sigma), and gentamycin (G1272, Sigma)).
The interphase was carefully pipetted from the two tubes into 2x 50mi Falcon tubes. PBS was added up to 50 ml in each tube, and the tubes centrifuged for 10 min at 1700 RPM (4° C.).
The supernatant was discarded, and PBS added to 30 ml, whereupon the tubes were centrifuged at 10 min at 1500 RPM (4° C.). Again, the supernatant was discarded, 10 ml PBS added, and the pellets from the two falcon tubes pooled.
The cells were counted and left in PBS, then centrifuged at 1200 RPM, 10 min. Medium was then added to obtain the concentration of interest, and the cells counted (16 squares)×3. The mean value was calculated and multiplied with the dilution factor×10^4=cells/ml. Diluting the cells to 10 million/ml will result in 500.000 cells/50 ul medium, 6 million/ml will be 300.000/50 ul medium.
Elispot assays where performed according to the manufactures recommended guidelines (MabTech) and the plates were analyzed using an AID ELISpot reader system (Autoimmun Diagnostika GmbH, Strassberg, Germany).
For this assay again 500,000 PBMC cells per well, derived from healthy human blood were incubated for 48 hours in the presence of the different oligonucleotides. Specifically, SEQ.ID.NO 1, SEQ.ID.NO 2, and SEQ.ID.NO 8. Following incubation, the wells were developed according to the kit suppliers recommendations and the average number of positive cells producing IFN-alpha per well were determined using an AID ELISpot reader.

[3] = system: human PBMC from steroid resistant asthmatics or healthy donors; test: Cytokine production in PBMC from steroid resistant asthmatics or healthy donors (Cytometric Bead Array); format: cell-based; conditions: 25 μM or 100 μM, 48 hours, CBA
Procedure: Blood samples were obtained from healthy volunteers or steroid resistant asthmatics. PBMC were isolated by density gradient centrifugation using Ficoll-Paque Plus (Pharmacia Biotech, Uppsala, Sweden), washed three times in buffered saline solution (PBS), and re-suspended in RPMI 1640 (Sigma) containing 10% heat inactivated fetal calf serum (FCS) (Life Technologies), 100 U/mL penicillin 100 μg/mL streptomycin (Life Technologies), 2 mM L-glutamine (Sigma), gentamycin (Sigma) and 5 mM Hepes (Gibco, Life Technologies). Cells were counted using 0.4% Trypan blue solution (Sigma Aldrich)
PBMC, prepared as previously described were, directly after seeding, stimulated with SEQ.ID.NO. 1. (25 μM and 100 μM) in the presence or absence of Dex (10^−6, 10^−8 and 10^−10 M) into a 96-well flat bottomed cell culture plate at 500 000 cells/well in RPMIc. As control ODN, 1 μM of IDX0910 was used. After treatment, cells were incubated in a humified incubator at 5% carbon dioxide and 37° C. for 48 hrs. Supernatants were saved and stored at −20° C. prior to cytokine level determination.
The supernatants were kept at −20° C. until analyzed. IFN-, IL-6, IL-10, IL-2, IL-4 and TNF-alpha were measured utilizing the Cytometric Bead Array (CBA) from Becton Dickenson (BD), according to the manufacturer's protocol. The lower detection limit was 20 pg/ml for each cytokine. The FACSCalibur was used for all CBA analysis for this study.
PBMCs were incubated in medium (basal) or with 25 μM (hatched bars) or 100 μM (dotted bars) of the CpG containing SEQ.ID.NO.1 for 48 hours before detection of IL-6 in supernatant. Each bar of the histogram represents average amount of IL-6 production from 9 healthy donors and 9 steroid resistant asthmatics. Experiments were performed in triplicate for each blood donor. Background levels of IL-6 (medium) were subtracted from each group of samples.

[4] = system: patients with mild to moderately active ulcerative colitis; test: Clinical phase II study in ulcerative colitis patients; format: in vivo, human; conditions: for Clinical response at Week 1: No, n (%) / Clinical response at Week 1: Yes, n (%): single rectal dose, ITT/Safety population; for clinical response rate at week 1, all receiving active drug: all four dose levels pooled (26/119)
Procedure: A large 150 patient study performed in ulcerative colitis patients who were neither on concomitant steroid therapies nor were described as being steroid refractory/dependent.
Primary objective: To evaluate the ability of each of the four dose levels (0.3 mg, 3 mg, 30 mg and 100 mg) of oligonucleotide SEQ.ID.NO.1 as an anti-inflammatory therapy to induce clinical remission in patients with mild to moderately active ulcerative colitis (UC), as compared with placebo.
Secondary objective: To assess the tolerability of single rectal doses of SEQ.ID.NO.1 oligonucleotide and to further evaluate the efficacy and safety of SEQ.ID.NO.1 oligonucleotide at four dose levels and to assess the pharmacokinetics of SEQ.ID.NO.1 oligonucleotide after rectal administration, as compared to placebo.

“5′-G*G*A*ACAGTTCGTCCAT*G*G*C-3′ (DNA dG*dG*dA*dAdCdAdGdTdTdCdGdTdCdCdAdT*dG*dG*dC) [SEQ.ID.NO 1, (Hu p65)AS, CpG-containing ODN; * marks phosphorothioate linkage, others phosphodiester]” was tested, and the “concentration at which induction of IFN-gamma becomes apparent” value (human PBMC [1]) was “around 25 uM”, the “concentration at which induction of IFN-alpha starts / is apparent” value (human PBMC [2]) was 1 µM and the “induction of IFN-alpha producing cells” value (human PBMC [2]; FIG. 13) was “clear inducing potential”. The “IL-6 induced, steroid resistant PBMCs compared to healthy PBMCs” value ([3]; 9 healthy donors and 9 steroid resistant asthmatics) was “significantly lower”, the “IL-10 induced, steroid resistant PBMCs compared to healthy PBMCs” value [3] was “significantly lower” and the “interferon-gamma induced, steroid resistant PBMCs compared to healthy PBMCs” value [3] was “significantly lower”. The “Clinical response at Week 1: No, n (%)” value ([4]; 0.3 mg (N = 31)) was 23 (74.2) n (%), the “Clinical response at Week 1: Yes, n (%)” value ([4]; 0.3 mg (N = 31)) was 8 (25.8) n (%) and the “Clinical response at Week 1: No, n (%)” value ([4]; 3 mg (N = 29)) was 23 (79.3) n (%). For the same substance, the “Clinical response at Week 1: Yes, n (%)” value ([4]; 3 mg (N = 29)) was 6 (20.7) n (%), the “Clinical response at Week 1: No, n (%)” value ([4]; 30 mg (N = 30)) was 23 (76.7) n (%) and the “Clinical response at Week 1: Yes, n (%)” value ([4]; 30 mg (N = 30)) was 7 (23.3) n (%). For the same substance, the “Clinical response at Week 1: No, n (%)” value ([4]; 100 mg (N = 29)) was 24 (82.8) n (%), the “Clinical response at Week 1: Yes, n (%)” value ([4]; 100 mg (N = 29)) was 5 (17.2) n (%) and the “clinical response rate at week 1, all receiving active drug” value [4] was 22%. The “clinical response rate at week 1, all receiving active drug” value ([4]; listed as Active) was 22%, the “induction of clinical, endoscopic or histopathological remissions or responses” value ([4]; one single dose from 0.3 to 100 mg, over a 12 week period) was “could not confirm” and the safety profile ([4]; single rectal doses 0.3 to 100 mg) was “good safety profile”.

Reference: patent US8895522B2, “Composition and method for the prevention, treatment and/or alleviation of an inflammatory disease” (Index Pharmaceuticals AB, priority 2005, dated 2014)
